According to BindingDB's records for doi:10.1021/jm00077a017 (University of Rhode Island, 1994):

How the values were obtained:
[1] = biological target: Adenosine deaminase 2 (CECR1) (Homo sapiens) (UniProt Q9NZK5); experiment: Tested for inhibition against human plasma adenosine deaminase (ADA2)
[2] = biological target: Adenosine deaminase 2 (CECR1) (Homo sapiens) (UniProt Q9NZK5); experiment: Tested for binding constant against adenosine deaminase (ADA2) in human plasma

Sequence of Adenosine deaminase 2 (CECR1) (Homo sapiens) (Q9NZK5 whole entry, looked up): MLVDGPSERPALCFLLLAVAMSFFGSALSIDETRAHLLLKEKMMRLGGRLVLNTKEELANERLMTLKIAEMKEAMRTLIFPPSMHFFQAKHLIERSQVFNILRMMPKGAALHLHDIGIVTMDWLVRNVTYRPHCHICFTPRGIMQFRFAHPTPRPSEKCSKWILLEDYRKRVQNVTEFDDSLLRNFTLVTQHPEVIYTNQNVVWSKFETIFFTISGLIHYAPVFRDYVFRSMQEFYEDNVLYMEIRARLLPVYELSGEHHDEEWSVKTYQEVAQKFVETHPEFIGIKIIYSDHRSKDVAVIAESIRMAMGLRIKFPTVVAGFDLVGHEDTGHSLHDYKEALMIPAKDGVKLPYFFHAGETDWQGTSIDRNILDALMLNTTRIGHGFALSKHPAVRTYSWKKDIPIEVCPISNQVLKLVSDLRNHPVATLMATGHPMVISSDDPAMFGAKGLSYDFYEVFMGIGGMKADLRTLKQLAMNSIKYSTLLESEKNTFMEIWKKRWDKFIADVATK

| Compound | Ki [1] | Ki [2] |
| --- | --- | --- |
| Nc1nncc2c1nnn2C1O[C@H](CO)[C@@H](O)[C@H]1O (some centres not stated) | 1410 µM |  |
| Nc1ncnc2c1ncn2[C@@H]1O[C@H](CO)[C@@H](O)[C@H]1O [[U-14C]adenosine] |  | 2180 µM |
